The values that follow come from patent US11986465B1, “2-amino-4-(4-bromophenyl)-6-ethoxypyridine-3,5-dicarbonitrile as an antibacterial compound” (KING FAISAL UNIVERSITY, priority 2023, dated 2024).

Holding throughout (type): cell-based
Test [1] concerns Bacillus cereus. Briefly: Agar plate disc-diffusion antibacterial test, Bacillus cereus. As to conditions: Gram positive. As to the method:
(§1) The agar plate disc-diffusion method was applied. […] The discs were then placed onto the surface of agar plates (nutrient agar for bacteria) seeded with the test organism. Each plate contained 15 mL of the agar medium, previously seeded with 0.2 mL of the broth culture of each organism pregrown for 18 hours. The inhibition zones were measured in millimeters (mm). Discs impregnated with DMSO were used as a control, and its inhibition zone was subtracted from the tested compound's actual inhibition zone.
(§2) The antibacterial activity was screened against gram positive bacteria namely Bacillus cereus and Staphylococcus aureus and gram-negative bacterial strains namely Pseudomonas aeruginosa and Escherichia coli using ciprofloxacin as a reference, as shown in Table 1.

Test [2] has as its system Staphylococcus aureus. Kind of test: Agar plate disc-diffusion antibacterial test, Staphylococcus aureus. As to conditions: Gram positive. How it is done:
as §1, §2

Test [3] has as its system Pseudomonas aeruginosa. Kind of test: Agar plate disc-diffusion antibacterial test, Pseudomonas aeruginosa. To be noted: Gram negative. As to the method:
as §1, §2

Test [4] relates to Escherichia coli. Briefly: Agar plate disc-diffusion antibacterial test, Escherichia coli. As to conditions: Gram negative. As to the method:
as §1, §2

The mark [5] stands for this setting: A = concentration of comp. = 10,000 μL.
Where [6] appears, read: B = concentration of comp. = 30.000 μL.
The mark [7] stands for this setting: C = concentration of comp. = 50,000 μL.

Turning to `CCOc1nc(N)c(C#N)c(-c2ccc(Br)cc2)c1C#N` [Compound 3, 2-amino-4-(4-bromophenyl)-6-ethoxypyridine-3,5-dicarbonitrile], in test [1] (setting [5]), the “inhibition zone, Bacillus Cereus, A” value was found to be 30 mm. Further, in test [1] (setting [6]), the “inhibition zone, Bacillus Cereus, B” value amounted to 36 mm. Moreover, the “inhibition zone, Bacillus Cereus, C” value in test [1] (setting [7]) stood at 41 mm. In addition, in test [2] (setting [5]), the “inhibition zone, Staphylococcus aureus, A” value was 19 mm. Also, in test [2] (setting [6]), the “inhibition zone, Staphylococcus aureus, B” value was 26 mm. In test [2] (setting [7]), the “inhibition zone, Staphylococcus aureus, C” value stood at 31 mm. The “inhibition zone, Pseudomonas aeruginosa, A” value in test [3] (setting [5]) amounted to 23 mm. Besides, the “inhibition zone, Pseudomonas aeruginosa, B” value in test [3] (setting [6]) turned out to be 33 mm. Moreover, the “inhibition zone, Pseudomonas aeruginosa, C” value in test [3] (setting [7]) was found to be 39 mm. Moreover, the “inhibition zone, Escherichia coli, A” value in test [4] (setting [5]) amounted to 37 mm. The “inhibition zone, Escherichia coli, B” value in test [4] (setting [6]) stood at 40 mm. Also, the “inhibition zone, Escherichia coli, C” value in test [4] (setting [7]) is 44 mm.
